Data reported in patent US20260060964A1, “METHODS AND COMPOSITIONS FOR TREATING SEPSIS” (Antivirus Therapeutics, priority 2021, published 2026).

Assays:
[1] = 25° C.; cited from earlier work
[2] = test system: neonatal enterovirus infections; test: clinical efficacy: survival of neonates with suspected enterovirus sepsis, placebo-controlled study; assay type: in vivo, human
From the text: (§1) Sixty-one subjects were enrolled; 43 randomized to the treatment group and 18 to the placebo group (FIG. 1). Of these, 43 (70%) were confirmed EV-positive: 31 in the treatment group and 12 in the placebo group. The study was terminated prior to full accrual due to expiration of study drug. […] 8/18 (44%) in the placebo group and lost-to-follow-up in 9/43 (21%) subjects in the treatment group v. 1/18 (6%) in the placebo group. Neonates with suspected EV sepsis (hepatitis, coagulopathy, and/or myocarditis) were enrolled at 19 centers from June 1999-December 2010.
(§2) A 2:1 study drug: placebo randomization with randomly permuted block sizes was used. Randomization codes were accessible only to biostatistical personnel at the coordinating center. Subjects initially received 5.0 mg/kg/dose of a 40 mg/mL liquid formulation of pleconaril (ViroPharma, Inc.; Exton, PA) or matching placebo identical in composition except lacking active study drug. The liquid formulation expired on May 31, 2002, after which the formulation was changed by the manufacturer to a 40 mg/mL suspension. Subjects received 8.5 mg/kg/dose of pleconaril suspension (shown to provide similar drug exposure as 5.0 mg/kg/dose of pleconaril liquid) or matching placebo. Both pleconaril formulations and matching placebos were administered every 8 hours×7 days in 1.0 mL of breast milk or formula by mouth or orogastric tube and were given to subjects who were otherwise NPO. Subjects were permitted to receive antibiotics, acyclovir, cardiotropic medications, and IVIG. Subjects for whom an etiology for illness other than EV infection was documented after enrollment had study drug/placebo discontinued.
(§3) A target sample size of 45 subjects with confirmed EV disease, with an expectation that approximately 67% of enrolled subjects would be confirmed to be EV-infected, was chosen to provide sufficient power to detect a reduction in viral shedding from the oropharynx from 96% to 70% on day 5. EV-confirmed subjects (culture- or PCR-positive) were included in virologic and clinical efficacy analyses, all enrolled subjects were included in safety analyses, and pleconaril recipients for whom pharmacokinetic data were obtained (whether or not EV-infected) were included in pharmacokinetic analyses. Survival analyses were conducted on the total enrolled cohort and on EV-confirmed subjects.
(§4) Fisher's Exact Test was utilized for comparisons of categorical factors and the Kruskal-Wallis and Mann Whitney Tests for continuous factors, with medians and ranges presented. Kaplan-Meier curves and log-rank statistics were utilized to assess differences in duration of culture and PCR positivity and survival between study groups. Changes in toxicity grades from baseline and adverse event rates were compared by chi-square tests.
(§5) The primary endpoint was the percentage of patients with a positive viral culture from the oropharynx five days after beginning study drug. Secondary endpoints included duration of culture positivity from oropharynx, rectum, urine and serum; changes in laboratory values reflecting resolution or progression of EV disease or drug toxicity; duration of hospitalization; time to resolution of organ abnormalities; survival; and pleconaril pharmacokinetics. Tertiary endpoints included duration of blood product (fresh frozen plasma, packed red blood cells, platelets, other products) and inotropic support.

enterovirus = test: virological efficacy: EV culture and PCR in neonates with suspected enterovirus sepsis, placebo-controlled study; assay type: in vivo, human
From the text: as §1, §2, §3, §4
Specimens for EV culture and polymerase chain reaction (PCR) were obtained from the oropharynx, rectum, urine, and serum on days 1-5, 7, 10, and 14. Plasma for pharmacokinetic analysis was obtained on day 1 (2, 4, and 8 hours after study drug administration) and days 3 and 7 (prior to and 2 and 4 hours after administration). Hematology and chemistry tests were obtained on study days 1, 3, 5, 7, 10, and 14 and urinalyses on days 1 and 7. Persisting abnormalities were followed at visits at 2, 6, 12, 18, and 24 months. Adverse events were recorded at each evaluation, and relationship to study treatment was determined by site investigators.
as §5, with “Tertiary endpoints included duration of blood product (fresh frozen plasma, packed red blood cells, platelets, other products) and inotropic support.” left out

[3] = plasma pharmacokinetics in neonates; assay type: in vivo, human; conditions: on D1
Experimental: as §2, with “discontinued. […]” for “discontinued.”
(§6) Specimens for EV culture and polymerase chain reaction (PCR) were obtained from the oropharynx, rectum, urine, and serum on days 1-5, 7, 10, and 14. […] Adverse events were recorded at each evaluation, and relationship to study treatment was determined by site investigators.

[4] = safety analysis: adverse events in enrolled neonates; assay type: in vivo, human
Experimental: as §2, with “discontinued. […]” for “discontinued.”
as §6

CYP 3A = conditions: oral delivery at 200-400 mg dose level; cited from earlier work
[5] = test system: human respiratory picornavirus; conditions: nasal thixotropic formulation, 12 mg per day nasal spray v. 400 mg oral dose; cited from earlier work

## Cc1cc(CCCOc2c(C)cc(-c3noc(C(F)(F)F)n3)cc2C)on1 [Pleconaril, 3-{3,5-dimethyl-4-[3-(3-methylisoxazol-5-yl)propoxy]phenyl}-5-(trifluoromethyl)-1,2,4-oxadiazole]
[1]
  solubility in water: < 0.02 µg/mL
[2]; over two months
  cumulative survival v. placebo, EV-confirmed subjects: trends in cumulative survival favoring the treatment group
[2]; p=0.02
  cumulative survival over two months v. placebo, all enrolled subjects: greater
[2]; p=0.07 among all subjects, p=0.23 among EV-confirmed subjects
  cumulative survival over 18 months v. placebo: continued to exceed
[2]; treatment group 7/31 v. placebo 5/12 (42%)
  subjects who died, EV-confirmed subjects: 23%
[2]; treatment group 10/43 v. placebo 8/18 (44%)
  subjects who died, all enrolled subjects: 23%
enterovirus; day 1, treatment group, 6 of 24
  EV-confirmed subjects culture-positive from the oropharynx: 25%
enterovirus; day 5 (primary endpoint)
  subjects shedding cultivable virus from the oropharynx: no subjects
enterovirus; oropharynx, pleconaril group v. placebo
  persistence of PCR positivity from OP, compared with placebo: shorter
enterovirus; pleconaril group v. placebo
  time to culture negativity of all sites combined, compared with placebo: shorter
enterovirus; treatment group (19 subjects) v. 7.0 days placebo, p=0.08
  median time to culture-negativity from all sites among culture-positive subjects: 4.0 days
enterovirus; treatment group v. 7.0 days placebo, p=0.05
  median time to sustained culture-negativity, urine: 4.0 days
enterovirus; treatment group, placebo also 3.0
  median time to sustained oropharyngeal culture negativity: 3.0 days
[3]
  share with concentrations below IC90: 41%
[4]; treatment group v. 18% placebo
  subjects with adverse events whose events were judged possibly/probably treatment-related: 3%
[4]; treatment group v. 94% placebo
  enrolled subjects who experienced adverse events: Eighty-six
CYP 3A
  induction of CYP 3A (side effect): induction of CYP 3A
[5]
  clinical/antiviral effect of nasal spray compared with oral dose: roughly similar clinical/antiviral effect
